Reference: US20100317736A1, “COMPOSITION OF THE SKIN EXTERNAL APPLICATION OR THE FOOD FOR ACCELERATING PROLINE RECYCLING BY CONTAINING THEANINE” (priority 2007, published 2010)

Columns and labels:
type 1 collagen = experiment: Immunohistochemistry of type 1 collagen in skin tissue; format: in vivo, mice; details: 500 mg theanine per kg oral, 5 weeks, UV, versus Comparative Example 3, FIG. 8
Protocol: This example was performed using the hairless mice of Example 2 and Comparative Example 2 to 3, which had been used in Experiment Example 6 and histopathological observation was performed by immunohistochemistry. The skin on the back of the hairless mice was taken, fixed in 10% neutral formalin and subjected to immunohistochemistry using monoclonal IgG1 antibody to examine the expression of type 1 collagen in the skin tissue.

[1] = system: SKH-1 female hairless mice; experiment: Collagen biosynthesis in hairless mice, closed patch test, western blotting; format: in vivo; details: cream of Example 1 (theanine 1) on back skin, closed patch test 2 weeks, versus Comparative Example 1, FIG. 5
Description: In order to examine the effect of improving skin wrinkle of theanine, SKH-1 female hairless mice, about 7 weeks old, were subjected to a closed patch test for 2 weeks. Each cream of Example 1 and Comparative Example 1 was applied on the back skin of the hairless mouse and after the closed patch test, the skin was biopsed. Proteins were separated from the biopsed skin and assessed for collagen by western blotting.

[2] = system: female hairless mice (SKH, HR-1); experiment: Inhibition of photoaging in hairless mouse, oral administration, replica / SkinVisiometer; format: in vivo; details: 500 mg theanine per kg oral, 5 weeks, UV total 600 mJ/cm^2, versus Comparative Example 3, FIG. 7
Description: In order to examine the effect of orally administered theanine on photoaging, hairless mice were used as animal models for this experiment. As described in Table 2, 6 to 7 week old female hairless mice (SKH, HR-1) were divided into 3 groups of Comparative Example 2 (normal group), Comparative Example 3 (UV control group) and Example 2 (UV/theanine treatment group), each group having 8 mice and were raised for the experiment period.
The mice of Comparative Example 2 and Comparative Example 3 were orally administered with 0.5 ml of saline and the mice of Example 2 were administered with 500 mg of theanine, based on the solid faction, per kg of body weight dissolved in 0.5 ml of saline using a syringe for liquid injection. The administration was continued for total 5 weeks and performed at the predetermined time for 5 days per week. From 2 weeks through 5 weeks after the administration had started, the groups of Comparative Example 3 and Example 2 were irradiated by UV under conditions similar to solar light three times per week. Here, the total UV irradiation for the experiment period was set to 600 mJ/cm^2. In order to objectively judge the effect of improving wrinkle, a replica was taken from the back of each hairless mouse prior to an autopsy. The skin surface was imaged using SkinVisiometer to compare and rates the degree of the skin wrinkles.

Human fibroblasts [3] = experiment: Cell viability (MTT); format: cell-based; details: 1, 10, 100, 1000 and 10000 μM theanine, 24 hours, FIG. 2
Protocol: 2×10^3 of human fibroblasts were cultured in a 96 well plate, treated with 1, 10, 100, 1000 and 10000 μM of theanine and incubated for 24 hours. 3-(4,5-dimethylazol-2-yl)-2,5-diphenyl-2H-tetraazoliumbromide (MTT) was added to the concentration of 0.5 mg/ml and further incubated for 4 hours.

prolidase = experiment: Prolidase activity in dermal cells (Chinard reaction, Gly-Pro substrate); format: cell-based, human; details: 0.01, 0.1, 1, 2 or 10 mM theanine, 24 hours, versus untreated control, FIG. 3
Protocol: 10^5 of human fibroblasts were cultured in 6 well plates for 6 days. The medium was replaced with heat-inactivated fetal bovine serum and then incubated for an additional 24 hours. The medium was again replaced with a culture medium containing either 0.01, 0.1, 1, 2 or 10 mM of theanine. After 24 hours, the cells were harvested and subjected to the Chinard reaction. The cells were ultrasonically disrupted and centrifuged at 100,000×g for 15 minutes. The supernatant was collected and mixed with 2 mM MnCl2 in the same amount for the prolidase reaction. The mixture was pre-reacted at 37° C. for 24 hours. 94 mM glycine-proline (Gly-Pro) dipeptide as a substrate of the prolidase reaction was added thereto in the same amount of the pre-reacted mixture and reacted at 37° C. for 1 hours. Then, the reaction was ended by adding 0.45M TCA. The enzymatic activity of prolidase was determined by quantifying proline, which is isolated by prolidase, by the color development using ninhydrin reagent. The enzyme activity was shown as a value calculating the equation of amount of isolated proline over protein weight over time (Mol/min/mg) and the result is shown in FIG. 3.

Human fibroblasts [4] = experiment: Total collagen biosynthesis in dermal cells (L-[3H]-proline incorporation); format: cell-based; details: 1 mM theanine, 24 hours, relative to 100 of control group, FIG. 4
Protocol: 5×10^4 of human fibroblasts were cultured in 24 well plates. The medium was replaced with a medium containing 164 kBq/ml L-[^3H]-proline and supplemented with theanine in a concentration either 0.01, 0.1, 1 or 10 mM. After incubation of 24 hours, the cells were harvested, disrupted and treated with collagenase to separate collagen. Then, the amount of ^3H increased by the treatment with theanine was determined using a liquid scintillation counter and compared to that of the control group which had not been treated with theanine. Without regard to the collagen type, the total collagen amount was measured and the data described in FIG. 4 are calculated relative to 100 of the control group. As a result, it was confirmed that the total collagen biosynthesis was increased by about 45% when treated with 1 mM of theanine.

Human fibroblasts [5] = experiment: Procollagen biosynthesis in dermal cells (ELISA); format: cell-based; details: 48 hours, FIG. 1
Protocol: Human fibroblasts are cultured in the concentration of 10^4 in 48 well plates. The medium of the plates was replaced with a culture medium containing either 10 μM of vitamin C or 10 μM of transforming growth factor-β (TGF-β) and a culture medium containing either 0.1, 1, 10 or 100 μM of theanine. After culturing for 48 hours, the supernatants were harvested and synthesized procollagen was quantified using the ELISA (Takara MK101) method. The data were calculated relative to 100 of control group without containing the above substances and the result was shown in FIG. 1.

[6] = system: female hairless mice (SKH, HR-1); experiment: H&E staining, thickness of the epidermal layer; format: in vivo; details: for Thickness of epidermal layer: 500 mg theanine per kg oral, 5 weeks, UV
Protocol: In addition, the H&E (heamatoxylin & eosin) staining assay was performed for observation of general tissue condition and measurement of thickness of the epidermal layer. The thickness of the epidermal layer was measured at 10 different spots randomly selected per tissue by observing the H&E stained slide under the microscope with 100× magnification and the average value was shown in Table 3.

## CCNC(=O)CC[C@H](N)C(=O)O [theanine]
Type 1 collagen
  type 1 collagen staining in skin tissue: more collagen was stained in the epidermal and dermal junction
[1]
  collagen biosynthesis in skin (western blotting): increased the collagen biosynthesis in the hairless mice
[2]
  density and depth of the wrinkles on the skin surface: alleviated as compared to those of Comparative Example 3
Human fibroblasts [3]
  cell viability / toxicity (MTT): not toxic at all
prolidase
  prolidase activity (amount of isolated proline): concentration-dependently increased
Human fibroblasts [4]
  increase of total collagen biosynthesis: about 45%
Human fibroblasts [5]; 0.1, 1, 10 or 100 μM theanine, relative to 100 of control group
  procollagen production: increased collagen production of fibroblast concentration-dependently
Human fibroblasts [5]; versus 10 μM vitamin C or 10 μM TGF-β
  procollagen production compared with positive controls: higher procollagen production than the positive control groups
[6]
  Thickness of epidermal layer: 77.4%
[6]; average of 10 spots per tissue, the values are: epidermal thickness
  Thickness of epidermal layer: 7.56 ± 0.75 µm
[6]; compared to the UV control group (Comparative Example 3)
  decrease in the thickness of the epidermal layer: about 23%
